Results as given in article PMC5951806, “Rapid labelling and covalent inhibition of intracellular native proteins using ligand-directed N-acyl-N-alkyl sulfonamide” (Nature Communications, 2018).

Experiments:
[1] = tested on: Hsp90; settings: read-out: reported IC50; cited from earlier work
[2] = tested on: SKBR3 cells; assay: Cell viability assay (WST-8)
[3] = tested on: Hsp90-client proteins HER2, cRaf, Akt and pAkt; assay: Western blotting of Hsp90 client proteins
[4] = tested on: intracellular Hsp90; settings: SKBR3 cells, pre-treated 1–10 µM for 3 h, washed, then 11 0.5 µM

## CC(C)NCCCn1c(Sc2cc3c(cc2I)OCO3)nc2c(N)ncnc21 [PU-H71]
[1]
  IC50: […]
[2]; SKBR3, 3 h treatment, washing, further 69 h
  cytotoxicity / growth inhibitory effect after washout: almost abolished the cytotoxicity
[2]; SKBR3, long-term incubation for 72 h
  cytotoxicity: remarkable cytotoxicity
[3]; SKBR3, 1 μM, 24 h without washing
  western blotting bands of Hsp90-client proteins relative to vehicle: dramatically decreased
[3]; SKBR3, 3 h treatment, washing, further 21 h
  Hsp90-client protein levels after washout: did not significantly affect the band intensities
[4]
  blocking of fluorescent labelling of Hsp90 by 11 after washout: failed to block the labelling reaction
